Earlier results in US9125953B2, “Halogenated ether complex” (SAPIOTEC GMBH, priority 2010, dated 2015).

OC[C@H]1O[C@@H]2O[C@H]3[C@H](O)[C@@H](O)[C@@H](O[C@H]4[C@H](O)[C@@H](O)[C@@H](O[C@H]5[C@H](O)[C@@H](O)[C@@H](O[C@H]6[C@H](O)[C@@H](O)[C@@H](O[C@H]7[C@H](O)[C@@H](O)[C@@H](O[C@H]1[C@H](O)[C@H]2O)O[C@@H]7CO)O[C@@H]6CO)O[C@@H]5CO)O[C@@H]4CO)O[C@@H]3CO [α-cyclodextrin]
solubility of unsubstituted α-cyclodextrin in water: 14.5 % by weight
